Several values for one entry are separate records, joined by “and”; a condition that tells them apart may be missing. Equal entries are not always repeated.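 Tested at 5 concentrations; 48 h exposure; 96-well plates; endpoints linearly interpolated, else capped at highest concentration. At the GI50, growth is halved. TGI is the concentration that stops growth completely.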
What was measured:
Test in all cases: inhibition of tumour cell growth, NCI panel, 48 h
T-47D breast = tested on: T-47D breast
SF-295 CNS = tested on: SF-295 CNS
HOP-62 NSCLC = tested on: HOP-62 NSCLC
BT-549 breast = tested on: BT-549 breast
NCI-H226 lung = tested on: NCI-H226 lung
COLO 205 colon = tested on: COLO 205 colon
DU-145 prostate = tested on: DU-145 prostate
PC-3 prostate = tested on: PC-3 prostate
KM12 colon = tested on: KM12 colon
HT29 colon = tested on: HT29 colon

SMILES | GI50 (T-47D breast) | TGI (T-47D breast) | GI50 (SF-295 CNS) | TGI (SF-295 CNS) | GI50 (HOP-62 NSCLC) | TGI (HOP-62 NSCLC) | GI50 (BT-549 breast) | TGI (BT-549 breast) | GI50 (NCI-H226 lung) | TGI (NCI-H226 lung) | GI50 (COLO 205 colon) | TGI (COLO 205 colon) | GI50 (DU-145 prostate) | TGI (DU-145 prostate) | GI50 (PC-3 prostate) | TGI (PC-3 prostate) | GI50 (KM12 colon) | TGI (KM12 colon) | GI50 (HT29 colon) | TGI (HT29 colon)
C[C@@H]1CCC2[C@@H](C)[C@H](OC(=O)CCC(=O)NCCNC(=O)Cc3cc(=O)oc4cc(N(C)C)ccc34)O[C@@H]3O[C@]4(C)CC[C@@H]1C23OO4 (some centres undefined) | 0.862 µM | 50.2 µM | 2.04 µM | > 100 µM | 12.5 µM | > 62 µM | 3.07 µM | > 100 µM | 7.81 µM | 35.2 µM | 2.62 µM | 15.2 µM | 10.3 µM | 24 µM | 0.189 µM | > 100 µM | 0.432 µM | 16.3 µM | 1.05 µM | 19.6 µM
c1cc(C2N3CCCN2CC3)ccn1 (centres undefined) |  | > 100 µM |  | > 100 µM |  | > 100 µM |  | > 100 µM |  | > 100 µM |  | > 100 µM |  | > 100 µM |  | > 100 µM |  | > 100 µM |  | > 100 µM
CO[C@H]1/C=C/C[C@H](C)[C@@H](C)S(=O)(=O)NC(=O)c2ccc3c(c2)N(C[C@@H]2CC[C@H]21)C[C@@]1(CCCc2cc(Cl)ccc21)CO3 | 2.75 µM | 10.8 µM | 1.97 µM | 6.05 µM | 2.35 µM | 6.2 µM | 2.23 µM | 6.99 µM | 2.66 µM | 7.4 µM | 2.7 µM | 6.6 µM | 4.56 µM | 15.3 µM | 1.98 µM | 6.23 µM | 3.17 µM | 11 µM | 2.13 µM | 5.16 µM
CCN1CCN(c2nc(C)cc(N(CCCNc3ccnc4cc(Cl)ccc34)Cc3ccco3)n2)CC1 | 1.97 µM | 5.55 µM | 1.81 µM | 3.63 µM | 3.22 µM | 14.1 µM | 2.03 µM | 5.99 µM | 15.3 µM | 29.2 µM | 1.85 µM | 3.98 µM | 5.89 µM | 19.7 µM | 6.87 µM | 22 µM | 5.07 µM | 19.4 µM | 2.35 µM | 8.72 µM
c1ccc([P+](CCC[P+](c2ccccc2)(c2ccccc2)c2ccccc2)(c2ccccc2)c2ccccc2)cc1 | 4.1 µM | 84.9 µM | 16.2 µM | > 100 µM | 18 µM | > 100 µM | 7.44 µM | > 100 µM | 32.7 µM | 93.8 µM and > 100 µM | 2.89 µM | 96.6 µM and 10.5 µM | 19.9 µM | > 100 µM | 3.26 µM | 81.1 µM | 3.86 µM | > 100 µM | 9.89 µM | > 100 µM
c1cc(-c2cnn3nc(N4CCOCC4)ccc23)nc(NC2CC2)n1 | 8.08 µM | > 25 µM | 8.72 µM | > 25 µM | 9.27 µM | > 25 µM | 8.15 µM | > 25 µM | 5.59 µM | > 25 µM | 8.06 µM | > 23.5 µM | 8.66 µM | > 25 µM | 7.87 µM | > 25 µM | 8.13 µM | > 25 µM | 8.35 µM | > 25 µM
Cc1ccc(C(=O)Nc2ccccc2C(=O)N/N=C(\c2ccccc2)c2ccccn2)cc1 | 0.493 µM | > 100 µM | 0.377 µM | > 100 µM | 0.27 µM | > 100 µM | 0.517 µM | > 100 µM | 0.895 µM | > 100 µM | 0.334 µM | > 100 µM | 0.434 µM | > 100 µM | 1.1 µM | > 100 µM | 0.388 µM | > 100 µM | 0.25 µM | > 100 µM
COc1cc(/C=N/O)nc(-c2ccccn2)c1 | 0.465 µM | > 100 µM |  | > 35.5 µM | 0.358 µM | > 69.7 µM | 0.803 µM | > 100 µM | 0.325 µM | 5.93 µM | 0.305 µM | > 100 µM | 0.4 µM | > 75.3 µM | 0.437 µM | > 100 µM | 0.385 µM | > 100 µM | 0.454 µM | > 100 µM
COc1cc2c(cc1-c1c(C)noc1C)ncc1[nH]c(=O)n([C@H](C)c3ccccn3)c12 | 1.22 µM | > 100 µM | 0.649 µM | 57.4 µM | 0.94 µM | > 100 µM | 13.1 µM | > 100 µM | 12.1 µM | > 100 µM | 0.241 µM | > 35.6 µM | 17.3 µM | > 100 µM | 2.72 µM | > 100 µM | 3.01 µM | > 100 µM | 0.244 µM | > 100 µM
CC1(C)CC(O)CCCCCCOc2c(CN)cccc2NC(=O)c2nc(cnc2N)-c2ccc(cc2)S1(=O)=O (centres undefined) | 1.67 µM | 4.15 µM | 1.49 µM | 3.02 µM | 1.41 µM | 3.75 µM | 1.25 µM | 2.85 µM | 1.28 µM | 6.93 µM | 0.394 µM | 2.08 µM | 0.0359 µM | 2.07 µM | 0.543 µM | 3.67 µM | 0.843 µM | 2.59 µM | 0.309 µM | 3.75 µM
CCCCc1oc2ccccc2c1C(=O)c1cc(I)c(OCCN(CC)CC)c(I)c1 | 3.16 µM | 12.2 µM | 1.88 µM | 3.81 µM and 8.35 µM | 2.36 µM | 6.25 µM and 30.7 µM | 3.26 µM | 9.38 µM | 2.84 µM | 12.7 µM and 8.55 µM | 1.89 µM | 3.4 µM and 7.84 µM | 5.28 µM | 17.8 µM | 1.95 µM | 8.91 µM | 1.84 µM | 3.61 µM and 12.3 µM | 1.97 µM | 5.01 µM and 8.27 µM
Cc1sc2c(c1C)C(c1ccc(Cl)cc1)=N[C@@H](CC(=O)Nc1ccc(O)cc1)c1nnc(C)n1-2 | 0.245 µM | 28.2 µM | 2 µM | 22.4 µM | 0.18 µM | 17.2 µM | 4.17 µM | 24.2 µM | 4.48 µM | 26 µM | 0.146 µM | 14.3 µM | 14.7 µM | 42.8 µM | 1.11 µM | 23.1 µM | 4.52 µM | 29.6 µM | 0.197 µM | 18.9 µM
C/C=C/COc1cc(NC(=S)c2ccoc2C)ccc1OC |  | > 100 µM |  | > 100 µM |  | > 100 µM |  | > 100 µM |  | > 100 µM |  | > 100 µM |  | > 100 µM |  | > 100 µM |  | > 100 µM |  | > 100 µM
NC(N)=N/N=C(/c1ccccc1)c1ccc(O)cc1O |  | > 100 µM |  | > 100 µM |  | > 100 µM |  | > 100 µM |  | > 100 µM |  | 33.2 µM |  | > 100 µM |  | > 100 µM |  | > 100 µM |  | 39.2 µM
COC(=O)c1cccc2c1Oc1ccccc1S2 |  | > 100 µM |  | > 100 µM |  | > 100 µM |  | > 100 µM |  | > 100 µM |  | 79.4 µM |  | > 100 µM |  | > 100 µM |  | 36.4 µM |  | 75.2 µM
CSc1ccc(C(=O)/C=C/c2ccc(F)cc2)cc1 | 96.4 µM | > 100 µM | 33.4 µM | > 100 µM | > 100 µM | > 100 µM | 40 µM | > 100 µM | 57.4 µM | > 100 µM | > 100 µM | > 100 µM | 54.8 µM | > 100 µM | 49.9 µM | > 100 µM | 70.9 µM | > 100 µM | 19.5 µM | > 100 µM
